Test system: GL261-luc cells
Test: GL261-luc intracranial malignant glioma mouse model: survival and bioluminescence
Assay type: in vivo, albino C57BL/6 mice
Conditions: TMZ (5×50 mg/kg), animals maintained on SD
Procedure: GL261-luc cells expressing luciferase were stereotactically implanted into the right frontal lobe of immune-competent albino C57BL/6 mice (NCI, Frederick, Md.). Following intracranial implantation, animals were fed standard rodent chow (SD) and were randomized to treatment groups on day 3 (SD vs KetoCal® with and without radiation or TMZ) based on bioluminescent signal (IVIS® Spectrum in vivo imaging system, Caliper Life Sciences, Hopkinton, Mass.). […] Mice were maintained on a 12 hour light/dark cycle and KetoCal® or SD was available ad libitum.

Cn1nnc2c(C(N)=O)ncn2c1=O [TMZ, temozolomide]
median survival: 28 days
